The results in this text go back to ChEMBL document CHEMBL5576106, “Highly Functionalized Spirobisnaphthalenes from Roussoella sp. KT4147” (J Nat Prod, 2024).

Molecules are shown by their SMILES.

The subject of the experiment is COLO 201. The experiment in a line: Cytotoxicity against human COLO201 cells assessed as inhibition of cell growth incubated for 24 hrs by WST-1 assay. It is filed as functional, cell-based. The note with it: COLO 201, 24 h.

Usually IC50 stands for the midpoint of a concentration-inhibition curve. As to `Oc1ccc(O)c2c1[C@@H](O)C[C@@H](O)C21Oc2cccc3cccc(c23)O1`, the 50% inhibitory concentration (IC50) worked out at 9.8 µM.

As for `O=C1C=CC(=O)C2=C1[C@@H](O)[C@H]1O[C@H]1C21Oc2cccc3cccc(c23)O1`, the IC50 was determined as 9.4 µM.

Consider `O=C1C[C@@H](N[C@@H]2CC(=O)c3cccc4c3[C@@]23Oc2ccc(O)c5c2[C@](O4)(O3)[C@@H]2O[C@@H]2C5=O)[C@]23Oc4ccc(O)c5c4[C@](Oc4cccc1c42)(O3)[C@@H]1O[C@@H]1C5=O`, for which the IC50 turned out to be 5.7 µM.

Regarding `COc1cc(=O)oc2c1[C@H](CO)[C@@H]1[C@H](C2)C(=O)c2cccc3c2[C@@]12Oc1ccc(O)c4c1[C@](O3)(O2)[C@@H]1O[C@@H]1C4=O`, the IC50 amounted to 5.4 µM.

For `CC[C@@]1(O)C(=O)OCc2c1cc1n(c2=O)Cc2cc3ccccc3nc2-1` [CAMPTOTHECIN], the half-maximal inhibitory concentration (IC50) was determined as 27 µM.
